Measured values as given in ChEMBL document CHEMBL3885881, “DrugMatrix”.

Species on record: Rattus norvegicus
Experiment: DrugMatrix - Regimen: Daily Repeat
Assay type: toxicity, organism-based, Sprague-Dawley
Set-up: regimen Daily Repeat, gender Male, age 6-8 weeks
Conditions: in vivo, po, route oral GAVAGE, vehicle 100 % WATER; for ABSOLUTE BASOPHIL / ABSOLUTE EOSINOPHIL / ABSOLUTE LYMPHOCYTE / ABSOLUTE MONOCYTE / ABSOLUTE SEGMENTED NEUTROPHIL / BASOPHIL / EOSINOPHIL / ERYTHROCYTE COUNT / HEMATOCRIT / HEMOGLOBIN / LEUKOCYTE COUNT / LYMPHOCYTE / MEAN CORPUSCULAR HEMOGLOBIN / MEAN CORPUSCULAR HEMOGLOBIN CONCENTRATION / MEAN CORPUSCULAR VOLUME / MONOCYTE / NEUTROPHIL / NUCLEATED RED BLOOD CELLS / PLATELET COUNT: tissue Blood; for ALANINE AMINOTRANSFERASE / ALBUMIN / ALKALINE PHOSPHATASE / ASPARTATE AMINOTRANSFERASE / BLOOD UREA NITROGEN / CARBON DIOXIDE / CHLORIDE / CHOLESTEROL / CREATINE PHOSPHOKINASE / CREATININE / GLUCOSE / LACTATE DEHYDROGENASE / LIPASE / PHOSPHORUS / POTASSIUM / SODIUM / TOTAL BILIRUBIN / TOTAL PROTEIN / URIC ACID: tissue Plasma
[1] = 1 mg/kg, 120 h, dose level Low, time 5 day
[2] = 175 mg/kg, 72 h, dose level High, time 3 day
[3] = 175 mg/kg, 120 h, dose level High, time 5 day

## CN1C2CCCC1CC(NC(=O)c1nn(C)c3ccccc13)C2 (centres undefined) [GRANISETRON]
[1]
  ABSOLUTE BASOPHIL: 0 CELLS/uL
  ABSOLUTE EOSINOPHIL: 0 CELLS/uL
  ABSOLUTE LYMPHOCYTE: 8153 CELLS/uL
  ABSOLUTE MONOCYTE: 97.67 CELLS/uL
  ABSOLUTE SEGMENTED NEUTROPHIL: 549.33 CELLS/uL
  BASOPHIL: 0%
  EOSINOPHIL: 0%
  ERYTHROCYTE COUNT: 5.09 x10E6/uL
  HEMATOCRIT: 31.63%
  HEMOGLOBIN: 12.5 G/DL
  LEUKOCYTE COUNT: 8.8 x10E3/uL
  LYMPHOCYTE: 92.67%
  MEAN CORPUSCULAR HEMOGLOBIN: 24.53 pg
  MEAN CORPUSCULAR HEMOGLOBIN CONCENTRATION: 39.6 G/DL
  MEAN CORPUSCULAR VOLUME: 62.03 fL
  MONOCYTE: 1%
  NEUTROPHIL: 6.33%
  NUCLEATED RED BLOOD CELLS: 0.67 /100WBC
  PLATELET COUNT: 832 x10E3/uL
  ALANINE AMINOTRANSFERASE: 51 u/L
  ALBUMIN: 4.2 G/DL
  ALKALINE PHOSPHATASE: 374 u/L
  ASPARTATE AMINOTRANSFERASE: 84.33 u/L
  BLOOD UREA NITROGEN: 16 mg/dL
  CARBON DIOXIDE: 31 mmol/L
  CHLORIDE: 101.67 MEQ/L
  CHOLESTEROL: 74.33 mg/dL
  CREATINE PHOSPHOKINASE: 215.67 u/L
  CREATININE: 0.16 mg/dL
  GLUCOSE: 149.33 mg/dL
  LACTATE DEHYDROGENASE: 154 u/L
  LIPASE: 9 u/L
  PHOSPHORUS: 10.23 mg/dL
  POTASSIUM: 5.82 MEQ/L
  SODIUM: 145 MEQ/L
  TOTAL BILIRUBIN: 0.23 mg/dL
  TOTAL PROTEIN: 6.23 G/DL
  URIC ACID: 0.7 mg/dL
[2]
  ABSOLUTE BASOPHIL: 0 CELLS/uL
  ABSOLUTE EOSINOPHIL: 0 CELLS/uL
  ABSOLUTE LYMPHOCYTE: 10622.67 CELLS/uL
  ABSOLUTE MONOCYTE: 19.67 CELLS/uL
  ABSOLUTE SEGMENTED NEUTROPHIL: 557.67 CELLS/uL
  BASOPHIL: 0%
  EOSINOPHIL: 0%
  ERYTHROCYTE COUNT: 5.65 x10E6/uL
  HEMATOCRIT: 35.33%
  HEMOGLOBIN: 13.77 G/DL
  LEUKOCYTE COUNT: 11.2 x10E3/uL
  LYMPHOCYTE: 93.67%
  MEAN CORPUSCULAR HEMOGLOBIN: 24.43 pg
  MEAN CORPUSCULAR HEMOGLOBIN CONCENTRATION: 38.93 G/DL
  MEAN CORPUSCULAR VOLUME: 62.63 fL
  MONOCYTE: 0.33%
  NEUTROPHIL: 6%
  NUCLEATED RED BLOOD CELLS: 0 /100WBC
  PLATELET COUNT: 1057.67 x10E3/uL
  ALANINE AMINOTRANSFERASE: 72.67 u/L
  ALBUMIN: 4 G/DL
  ALKALINE PHOSPHATASE: 502.33 u/L
  ASPARTATE AMINOTRANSFERASE: 95 u/L
  BLOOD UREA NITROGEN: 13 mg/dL
  CARBON DIOXIDE: 33 mmol/L
  CHLORIDE: 100 MEQ/L
  CHOLESTEROL: 75.67 mg/dL
  CREATINE PHOSPHOKINASE: 557.67 u/L
  CREATININE: 0.12 mg/dL
  GLUCOSE: 149.33 mg/dL
  LACTATE DEHYDROGENASE: 186 u/L
  LIPASE: 10 u/L
  PHOSPHORUS: 11.47 mg/dL
  POTASSIUM: 5.72 MEQ/L
  SODIUM: 145.1 MEQ/L
  TOTAL BILIRUBIN: 0.17 mg/dL
  TOTAL PROTEIN: 5.83 G/DL
  URIC ACID: 0.5 mg/dL
[3]
  ABSOLUTE BASOPHIL: 0 CELLS/uL
  ABSOLUTE EOSINOPHIL: 0 CELLS/uL
  ABSOLUTE LYMPHOCYTE: 7981.33 CELLS/uL
  ABSOLUTE MONOCYTE: 176.67 CELLS/uL
  ABSOLUTE SEGMENTED NEUTROPHIL: 675.33 CELLS/uL
  BASOPHIL: 0%
  EOSINOPHIL: 0%
  ERYTHROCYTE COUNT: 5.68 x10E6/uL
  HEMATOCRIT: 35.93%
  HEMOGLOBIN: 13.87 G/DL
  LEUKOCYTE COUNT: 8.83 x10E3/uL
  LYMPHOCYTE: 90%
  MEAN CORPUSCULAR HEMOGLOBIN: 24.47 pg
  MEAN CORPUSCULAR HEMOGLOBIN CONCENTRATION: 38.67 G/DL
  MEAN CORPUSCULAR VOLUME: 63.37 fL
  MONOCYTE: 2%
  NEUTROPHIL: 8%
  NUCLEATED RED BLOOD CELLS: 0 /100WBC
  PLATELET COUNT: 1308.33 x10E3/uL
  ALANINE AMINOTRANSFERASE: 86.67 u/L
  ALBUMIN: 4.03 G/DL
  ALKALINE PHOSPHATASE: 415.33 u/L
  ASPARTATE AMINOTRANSFERASE: 102 u/L
  BLOOD UREA NITROGEN: 16.67 mg/dL
  CARBON DIOXIDE: 31.33 mmol/L
  CHLORIDE: 100.33 MEQ/L
  CHOLESTEROL: 67.33 mg/dL
  CREATINE PHOSPHOKINASE: 224.33 u/L
  CREATININE: 0.19 mg/dL
  GLUCOSE: 146.33 mg/dL
  LACTATE DEHYDROGENASE: 136.33 u/L
  LIPASE: 11.67 u/L
  PHOSPHORUS: 11.97 mg/dL
  POTASSIUM: 5.51 MEQ/L
  SODIUM: 146.57 MEQ/L
  TOTAL BILIRUBIN: 0.17 mg/dL
  TOTAL PROTEIN: 5.6 G/DL
  URIC ACID: 0.57 mg/dL
